In brackets after ≈: the same amount, converted by molar mass.
Legend:
Assay in all cases: ≥ marks a high value that may be exact or a test limit, other limits are often not marked, values filed in µg/mL are converted to µM
[1] = tested on: Bacillus subtilis DSM 347
Escherichia coli BL21AI = tested on: Escherichia coli BL21AI
Escherichia coli 1103 = tested on: Escherichia coli 1103
[2] = tested on: Micrococcus luteus ATCC 10240
[3] = tested on: Klebsiella pneumoniae DSM 681
[4] = tested on: Escherichia coli DSM 10233
[5] = tested on: Pseudomonas aeruginosa KCTC 1637
[6] = tested on: Bacillus subtilis KCTC 1918
[7] = tested on: Staphylococcus aureus KCTC 1621
[8] = tested on: Streptococcus pyogenes KCTC 3096
[9] = tested on: Aspergillus fumigatus KCTC 4165
[10] = tested on: Candida albicans TIMM 1768
[11] = tested on: Escherichia coli KCTC 1682
[12] = tested on: Salmonella typhimurium KCTC 1926

MIC [1] [µM] | MIC (Escherichia coli BL21AI) [µM] | MIC (Escherichia coli 1103) [µM] | MIC [2] [µM] | MIC [3] [µM] | MIC [4] [µM] | MIC [5] [µM] | MIC [6] [µM] | MIC [7] [µM] | MIC [8] [µM] | MIC [9] [µM] | MIC [10] [µM] | MIC [11] [µM] | MIC [12] [µM] | SMILES
≥ 59.3 | ≥ 59.3 | ≥ 59.3 | ≥ 59.3 | ≥ 59.3 | ≥ 59.3 |  |  |  |  |  |  |  |  | CC[C@H](C)[C@H](NC(=O)[C@@H]1CCCN1C(=O)[C@H](CCC(N)=O)NC(=O)[C@@H]1CCCN1C(=O)[C@H](CCCN=C(N)N)NC(=O)[C@@H]1CCCN1C(=O)[C@@H]1CCCN1C(=O)[C@H](Cc1cnc[nH]1)NC(=O)[C@@H]1CCCN1C(=O)[C@H](CCCN=C(N)N)NC(=O)[C@@H](N)CC(C)C)C(=O)N[C@@H](Cc1ccc(O)cc1)C(=O)N[C@H](C(=O)N1CCC[C@H]1C(=O)N[C@@H](CCCN=C(N)N)C(=O)N[C@@H](CC(N)=O)C(=O)N[C@@H](CC(N)=O)C(=O)NCC(N)=O)C(C)C [LRPHPPRPQPIYVPRNNG]
 |  |  |  |  |  | 3.12 (≈ 6.7 µg/mL) | 12.5 (≈ 26.8 µg/mL) | 12.5 (≈ 26.8 µg/mL) | 25 (≈ 53.7 µg/mL) | 25 (≈ 53.7 µg/mL) | 25 (≈ 53.7 µg/mL) | 12.5 (≈ 26.8 µg/mL) | 6.25 (≈ 13.4 µg/mL) | CC[C@H](C)[C@H](NC(=O)[C@H](CCCCN)NC(=O)[C@H](CCCCN)NC(=O)[C@H](CC(C)C)NC(=O)[C@H](CCCCN)NC(=O)[C@H](CCC(=O)O)NC(=O)CN)C(=O)NCC(=O)N[C@@H](CCCCN)C(=O)N[C@@H](CCCCN)C(=O)N[C@H](C(=O)N[C@@H](CCCCN)C(=O)N[C@@H](CC(N)=O)C(=O)N[C@@H](Cc1ccccc1)C(=O)N[C@@H](Cc1ccccc1)C(=O)N[C@@H](CCC(N)=O)C(=O)N[C@@H](CCCCN)C(=O)N[C@@H](CC(C)C)C(=O)O)[C@@H](C)CC [GEKLKKIGKKIKNFFQKL]
